Data taken from patent publication US10670605B2, “Cysteine reactive probes and uses thereof” (The Scripps Research Institute, priority 2015, dated 2020).

Legend:
Test in all cases: Competitive isoTOP-ABPP, cell lysates
Assay type in all cases: binding
PDE12 C108 (Q6L8Q7) = target: T1, PDE12 C108 (Q6L8Q7) (Homo sapiens, UniProt Q6L8Q7); details: for R value (DMSO/fragment) / isoTOP-ABPP ratio, Q6L8Q7_C108: 500 μM
T1 sequence (Q6L8Q7 43-609): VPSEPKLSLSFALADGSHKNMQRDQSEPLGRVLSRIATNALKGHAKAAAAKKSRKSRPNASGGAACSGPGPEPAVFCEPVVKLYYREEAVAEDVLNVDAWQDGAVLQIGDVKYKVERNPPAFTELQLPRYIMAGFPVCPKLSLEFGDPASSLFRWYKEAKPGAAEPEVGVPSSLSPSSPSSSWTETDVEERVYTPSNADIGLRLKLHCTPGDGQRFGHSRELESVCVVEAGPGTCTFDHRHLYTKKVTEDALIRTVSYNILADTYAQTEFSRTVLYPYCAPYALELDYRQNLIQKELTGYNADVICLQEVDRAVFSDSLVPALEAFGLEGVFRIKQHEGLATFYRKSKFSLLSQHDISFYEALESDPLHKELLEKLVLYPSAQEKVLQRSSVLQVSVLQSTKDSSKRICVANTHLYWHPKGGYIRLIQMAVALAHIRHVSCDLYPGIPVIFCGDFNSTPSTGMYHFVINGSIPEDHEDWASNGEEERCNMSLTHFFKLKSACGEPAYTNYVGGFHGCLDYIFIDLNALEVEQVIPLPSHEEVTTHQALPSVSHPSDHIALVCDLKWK

SAMHD1 C522 (Q9Y3Z3) = SAMHD1 C522 (Q9Y3Z3) (Homo sapiens, UniProt Q9Y3Z3)
UCHL3 C95 (P15374) = target: T2, UCHL3 C95 (P15374) (Homo sapiens, UniProt P15374)
T2 sequence (P15374 1-230): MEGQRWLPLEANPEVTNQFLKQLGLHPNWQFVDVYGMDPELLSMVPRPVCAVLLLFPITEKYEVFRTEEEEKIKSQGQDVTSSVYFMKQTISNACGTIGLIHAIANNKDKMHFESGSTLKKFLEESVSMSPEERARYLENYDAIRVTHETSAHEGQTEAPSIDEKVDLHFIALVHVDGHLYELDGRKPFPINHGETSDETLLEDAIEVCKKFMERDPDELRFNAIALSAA

ADA C75 (P00813) = target: T3, ADA C75 (P00813) (Homo sapiens, UniProt P00813); details: for isoTOP-ABPP ratio (reactivity profile), P00813_C75: 500 μm in-vitro ramos
T3 sequence (P00813 1-363): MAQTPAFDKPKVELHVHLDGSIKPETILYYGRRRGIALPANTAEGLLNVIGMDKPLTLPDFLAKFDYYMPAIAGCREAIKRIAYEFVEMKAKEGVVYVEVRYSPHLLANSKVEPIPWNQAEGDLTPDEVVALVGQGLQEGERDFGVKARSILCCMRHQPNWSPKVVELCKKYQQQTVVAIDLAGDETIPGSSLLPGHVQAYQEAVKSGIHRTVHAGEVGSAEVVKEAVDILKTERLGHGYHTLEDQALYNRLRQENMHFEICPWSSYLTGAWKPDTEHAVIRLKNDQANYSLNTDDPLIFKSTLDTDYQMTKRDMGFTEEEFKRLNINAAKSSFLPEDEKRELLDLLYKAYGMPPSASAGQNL

IRF4 C194 (Q15306) = target: T4, IRF4 C194 (Q15306) (Homo sapiens, UniProt Q15306); details: for isoTOP-ABPP ratio (reactivity profile), Q15306_C194: 500 μm in-vitro ramos
T4 sequence (Q15306 1-451): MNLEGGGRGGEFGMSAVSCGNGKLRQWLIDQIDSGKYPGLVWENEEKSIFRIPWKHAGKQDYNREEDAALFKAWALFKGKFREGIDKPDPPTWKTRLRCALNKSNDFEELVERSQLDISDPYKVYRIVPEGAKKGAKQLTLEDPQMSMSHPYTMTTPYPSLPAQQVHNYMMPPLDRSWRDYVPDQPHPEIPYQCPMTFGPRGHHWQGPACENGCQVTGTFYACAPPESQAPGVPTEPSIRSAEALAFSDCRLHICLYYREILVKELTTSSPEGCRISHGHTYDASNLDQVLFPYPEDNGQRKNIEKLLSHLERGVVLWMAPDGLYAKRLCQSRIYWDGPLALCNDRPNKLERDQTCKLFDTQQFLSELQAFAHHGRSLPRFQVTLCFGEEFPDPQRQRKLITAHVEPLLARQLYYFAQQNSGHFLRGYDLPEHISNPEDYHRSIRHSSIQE

Sequence of SAMHD1 C522 (Q9Y3Z3) (Q9Y3Z3 whole entry): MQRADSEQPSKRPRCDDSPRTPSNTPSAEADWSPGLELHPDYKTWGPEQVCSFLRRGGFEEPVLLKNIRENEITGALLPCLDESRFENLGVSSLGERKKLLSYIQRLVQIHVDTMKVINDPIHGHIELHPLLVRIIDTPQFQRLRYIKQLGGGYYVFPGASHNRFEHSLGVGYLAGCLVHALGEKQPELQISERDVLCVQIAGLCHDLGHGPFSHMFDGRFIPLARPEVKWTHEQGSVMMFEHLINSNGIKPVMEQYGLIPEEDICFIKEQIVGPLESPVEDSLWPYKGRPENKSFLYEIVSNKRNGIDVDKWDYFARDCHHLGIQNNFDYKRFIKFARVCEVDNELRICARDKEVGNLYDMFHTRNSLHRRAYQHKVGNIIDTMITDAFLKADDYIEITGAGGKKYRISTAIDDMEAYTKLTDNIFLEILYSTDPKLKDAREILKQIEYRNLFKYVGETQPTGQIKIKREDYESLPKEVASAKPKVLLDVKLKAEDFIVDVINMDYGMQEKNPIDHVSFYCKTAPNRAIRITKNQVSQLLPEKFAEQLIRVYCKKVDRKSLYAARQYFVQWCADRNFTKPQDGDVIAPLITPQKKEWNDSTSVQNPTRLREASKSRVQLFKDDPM

With `O=C(CCl)NC1C(O)OC(CO)C(O)C1O` (mixture of isomers) [compound 44] the “isoTOP-ABPP reactivity profile ratio, Q6L8Q7_C108” value (PDE12 C108 (Q6L8Q7); 500 μm, in-vitro_ramos_231) was 0.8, the “isoTOP-ABPP reactivity profile ratio, Q9Y3Z3_C522” value (SAMHD1 C522 (Q9Y3Z3); 500 μm, in-vitro_ramos_231) was 0.8 and the “isoTOP-ABPP reactivity profile ratio, P15374_C95” value (UCHL3 C95 (P15374); 500 μm, in-vitro_ramos_231) was 0.8.
In the case of `COc1ccc2c(c1)CCCN2C(=O)CCl` [compound 2], the “R value (DMSO/fragment)” value (ADA C75 (P00813); 500 μM, invitro, ramos) was 7.3, the “R value (DMSO/fragment)” value (PDE12 C108 (Q6L8Q7); invitro, ramos) was 5.1 and the “R value (DMSO/fragment)” value (SAMHD1 C522 (Q9Y3Z3); 500 μM, invitro, ramos) was 4.0. The “R value (DMSO/fragment)” value (UCHL3 C95 (P15374); 500 μM, invitro, ramos) was 1.8.
With `O=C(CCl)Nc1cc(C(F)(F)F)cc(C(F)(F)F)c1` [compound 3] the “R value (DMSO/fragment)” value (ADA C75 (P00813); 500 μM, invitro, ramos) was 1.5, the “R value (DMSO/fragment)” value (IRF4 C194 (Q15306); 500 μM, invitro, ramos) was 20.0 and the “R value (DMSO/fragment)” value (PDE12 C108 (Q6L8Q7); in vitro, MDA-MB-231) was 3.6. The “R value (DMSO/fragment)” value (PDE12 C108 (Q6L8Q7); invitro, ramos) was 1.8, the “R value (DMSO/fragment)” value (SAMHD1 C522 (Q9Y3Z3); 500 μM, in vitro, MDA-MB-231) was 2.6 and the “R value (DMSO/fragment)” value (UCHL3 C95 (P15374); 500 μM, in vitro, MDA-MB-231) was 1.7. For the same molecule, the “R value (DMSO/fragment)” value (UCHL3 C95 (P15374); 500 μM, invitro, ramos) was 1.4.
`COc1ccc(C2CC(c3cccs3)=NN2C(=O)CCl)cc1` (centres unmarked) [compound 4] was tested, and the “R value (DMSO/fragment)” value (ADA C75 (P00813); 250 μM, in vitro, Ramos) was 0.1, the “R value (DMSO/fragment)” value (SAMHD1 C522 (Q9Y3Z3); 250 μM, in vitro, MDA-MB-231) was 1.5 and the “R value (DMSO/fragment)” value (UCHL3 C95 (P15374); 250 μM, in vitro, Ramos) was 0.9.
In the case of `C=CC(=O)N(c1ccccc1)c1ccc(Br)cc1` [compound 5], the “isoTOP-ABPP ratio, P00813_C75” value (ADA C75 (P00813); 500 μM, invitro, ramos) was 2.5, the “isoTOP-ABPP ratio, Q15306_C194” value (IRF4 C194 (Q15306); 500 μM, invitro, ramos) was 2.2 and the “isoTOP-ABPP ratio, Q9Y3Z3_C522” value (SAMHD1 C522 (Q9Y3Z3); 500 μM, invitro, ramos) was 5.4. The “isoTOP-ABPP ratio, P15374_C95” value (UCHL3 C95 (P15374); 500 μM, invitro, 231) was 1.5 and the “isoTOP-ABPP ratio, P15374_C95” value (UCHL3 C95 (P15374); 500 μM, invitro, ramos) was 1.1.
`CNS(=O)(=O)C=Cc1ccc2c(ccn2Cc2ccccc2)c1` [compound 6] was tested, and the “isoTOP-ABPP ratio, P15374_C95” value (UCHL3 C95 (P15374); 500 μM, invitro, 231) was 1.1.
With `O=C(CCl)N1CCN(S(=O)(=O)c2ccccc2F)CC1` [compound 10] the “isoTOP-ABPP ratio, P00813_C75” value (ADA C75 (P00813); 500 μM, invitro, ramos) was 1.0, the “isoTOP-ABPP ratio, Q15306_C194” value (IRF4 C194 (Q15306); 500 μM, invitro, ramos) was 2.5 and the “isoTOP-ABPP ratio, Q9Y3Z3_C522” value (SAMHD1 C522 (Q9Y3Z3); 500 μM, invitro, 231) was 1.8. For the same molecule, the “isoTOP-ABPP ratio, P15374_C95” value (UCHL3 C95 (P15374); 500 μM, invitro, 231) was 2.0.
With `Cn1cc(S(=O)(=O)N2CCOCC2)cc1C(=O)NC(=O)CCl` [compound 11] the “isoTOP-ABPP ratio, P00813_C75” value (ADA C75 (P00813); 500 μM, invitro, ramos) was 7.5, the “isoTOP-ABPP ratio, Q15306_C194” value (IRF4 C194 (Q15306); 500 μM, invitro, ramos) was 4.3 and the “isoTOP-ABPP ratio, Q6L8Q7_C108” value (PDE12 C108 (Q6L8Q7); invitro, 231) was 4.2. For the same molecule, the “isoTOP-ABPP ratio, Q9Y3Z3_C522” value (SAMHD1 C522 (Q9Y3Z3); 500 μM, invitro, 231) was 2.1, the “isoTOP-ABPP ratio, P15374_C95” value (UCHL3 C95 (P15374); 500 μM, invitro, 231) was 0.8 and the “isoTOP-ABPP ratio, P15374_C95” value (UCHL3 C95 (P15374); 500 μM, invitro, ramos) was 0.8.
With `O=C(CCl)NC(=O)NC12CC3CC(CC(C3)C1)C2` [compound 12] the “isoTOP-ABPP ratio, P00813_C75” value (ADA C75 (P00813); 500 μM, invitro, ramos) was 0.7, the “isoTOP-ABPP ratio, Q15306_C194” value (IRF4 C194 (Q15306); 500 μM, invitro, ramos) was 3.7 and the “isoTOP-ABPP ratio, Q6L8Q7_C108” value (PDE12 C108 (Q6L8Q7); invitro, ramos) was 1.5. The “isoTOP-ABPP ratio, P15374_C95” value (UCHL3 C95 (P15374); 500 μM, invitro, ramos) was 0.5.
`O=C(CCl)NCCc1c[nH]c2ccccc12` [compound 13] was tested, and the “isoTOP-ABPP ratio, P00813_C75” value (ADA C75 (P00813); 500 μM, invitro, ramos) was 0.9, the “isoTOP-ABPP ratio, Q15306_C194” value (IRF4 C194 (Q15306); 500 μM, invitro, ramos) was 1.1 and the “isoTOP-ABPP ratio, Q6L8Q7_C108” value (PDE12 C108 (Q6L8Q7); invitro, ramos) was 1.0. For the same molecule, the “isoTOP-ABPP ratio, Q9Y3Z3_C522” value (SAMHD1 C522 (Q9Y3Z3); 500 μM, invitro, 231) was 0.8 and the “isoTOP-ABPP ratio, P15374_C95” value (UCHL3 C95 (P15374); 500 μM, invitro, ramos) was 0.8.
For `C=CC(=O)N(Cc1cccnc1)c1ccc(Oc2ccccc2)c(C(F)(F)F)c1` [compound 15], the “isoTOP-ABPP ratio (reactivity profile), P00813_C75” value (ADA C75 (P00813)) was 1.1, the “isoTOP-ABPP ratio (reactivity profile), Q15306_C194” value (IRF4 C194 (Q15306)) was 2.2 and the “isoTOP-ABPP ratio, Q6L8Q7_C108” value (PDE12 C108 (Q6L8Q7); invitro, 231) was 1.1. For the same molecule, the “isoTOP-ABPP ratio (reactivity profile), Q9Y3Z3_C522” value (SAMHD1 C522 (Q9Y3Z3); 500 μm in-vitro ramos) was 1.6 and the “isoTOP-ABPP ratio (reactivity profile), P15374_C95” value (UCHL3 C95 (P15374); 500 μm in-vitro ramos) was 0.7.
For `O=C(CCl)N1CCC(C(O)(c2ccccc2)c2ccccc2)CC1` [compound 20], the “isoTOP-ABPP ratio (reactivity profile), P00813_C75” value (ADA C75 (P00813)) was 1.5, the “isoTOP-ABPP ratio (reactivity profile), Q15306_C194” value (IRF4 C194 (Q15306)) was 3.0 and the “isoTOP-ABPP ratio (reactivity profile), Q6L8Q7_C108” value (PDE12 C108 (Q6L8Q7); 500 μm in-vitro ramos_231) was 1.6. The “isoTOP-ABPP ratio (reactivity profile), Q9Y3Z3_C522” value (SAMHD1 C522 (Q9Y3Z3); 500 μm in-vitro ramos) was 1.3, the “isoTOP-ABPP ratio (reactivity profile), Q9Y3Z3_C522” value (SAMHD1 C522 (Q9Y3Z3); 500 μm in-vitro ramos_231) was 2.1 and the “isoTOP-ABPP ratio (reactivity profile), P15374_C95” value (UCHL3 C95 (P15374); 500 μm in-vitro ramos) was 0.9. The “isoTOP-ABPP ratio (reactivity profile), P15374_C95” value (UCHL3 C95 (P15374); 500 μm in-vitro ramos_231) was 1.0.
With `O=C(CCl)NC12CC3CC(CC(C3)C1)C2` [compound 21] the “isoTOP-ABPP ratio (reactivity profile), P00813_C75” value (ADA C75 (P00813)) was 1.3, the “isoTOP-ABPP ratio (reactivity profile), Q15306_C194” value (IRF4 C194 (Q15306)) was 1.7 and the “isoTOP-ABPP ratio (reactivity profile), Q9Y3Z3_C522” value (SAMHD1 C522 (Q9Y3Z3); 500 μm in-vitro ramos) was 1.4. The “isoTOP-ABPP ratio (reactivity profile), P15374_C95” value (UCHL3 C95 (P15374); 500 μm in-vitro ramos_231) was 1.1.
`O=C(CCl)N1CCOCC1` [compound 22] was tested, and the “isoTOP-ABPP ratio (reactivity profile), P00813_C75” value (ADA C75 (P00813)) was 1.3, the “isoTOP-ABPP ratio (reactivity profile), Q15306_C194” value (IRF4 C194 (Q15306)) was 1.1 and the “isoTOP-ABPP ratio (reactivity profile), Q9Y3Z3_C522” value (SAMHD1 C522 (Q9Y3Z3); 500 μm in-vitro ramos) was 0.8. For the same molecule, the “isoTOP-ABPP ratio (reactivity profile), P15374_C95” value (UCHL3 C95 (P15374); 500 μm in-vitro ramos) was 0.7.
